Data published in US20150017092A1, “DEVICES AND METHODS FOR DETERMINING SENSITIVITY TO RADIATION” (The Regents of the University of California, priority 2012, published 2015).

Key:
MCF10A = assay: 53BP1 radiation induced foci (RIF) time response in MCF10A exposed to X-rays under ATM inhibition, fitted with Eq. 1; assay type: cell-based, human; conditions: for T1/2_1 (RIF induction half-life): 10 μM inhibitor; for α, RIF/Gy (absolute RIF yield): 10 μM inhibitor from 1 h pre-IR, one experiment
Text: To test the validity of the mathematical model further, we perturbed the rates of RIF formation or RIF removal by inhibiting ataxia telangiectasia mutated (ATM) kinase activity with KU55933 (see Materials and Methods).
The cells were fixed for immunofluorescence at specific intervals after exposure to X-rays. We typically refer to “low dose” or “high dose” as doses below or equal to 0.1 Gy or larger than 1 Gy, respectively. For high-LET IR, cells were irradiated at the accelerator beam line of the National Aeronautics and Space Administration Space […] Laboratory at Brookhaven National Laboratory.
We are only briefly describing these procedures. For complete information, see Supplemental Information Materials and Methods. Immunostaining using anti-53BP1 (rabbit polyclonal, Bethyl Laboratories A300-272A) was performed according to previous staining protocol (Costes et al. (2006) Radiat. Res. 165: 505-515). For image acquisition, both live and fixed MCF10A were imaged using a Zeiss plan-apochromat 40× dry objective (N.A. of 0.95) at a fixed exposure time. Nondeconvolved 3D stacks were acquired and used for image analysis (10 slices of 0.5-μm steps for fixed cells and 3 slices of 1-μm step for live cells). All image manipulations, foci analysis, and statistics were done with Matlab (MathWorks, Inc.) and DIPimage (image processing toolbox for Matlab, Delft University of Technology). In contrast to previous intensity-based methods for RIF identification (Bocker and Iliakis (2006) Radiat. Res. 165: 113-124), we used a pattern recognition approach to detect RIF by applying a wavelet morphological filter to enhance RIF peaks in the image while reducing noise from nonspecific signals (Olivo-Marin (2002) Pattern Recognition 35: 1989-1996). Nuclear space occupied by RIF was identified by applying a constant threshold on the wavelet filtered image, and watershed algorithm was used to separate touching RIF. To test if focus size could affect the accuracy of automatic RIF detection, we applied the software on simulated data where foci sizes and densities had different values (i.e., 1 to 40 foci/nucleus were simulated with four distinct sizes: 0.1, 0.4, 1.3, and 2.4 μm^3; FIG. 17). […] Finally, in order to extract the number of “real” RIF from the number of background foci in each scored nucleus, we introduced a background subtraction method that assumes the measured RIF distribution is the result of a convolution between the “real” RIF distribution and the background foci distribution (FIG. 18). For quantification of RIF in live cells, we counted both the cumulative and instantaneous number of RIF manually in 3D time-lapse images. Time interval varied between experiments and was generally set to 10-min interval for the first hour, followed by 30-min interval afterwards. This setting was optimum to minimize phototoxicity and specimen bleaching. Because of the difficulty of software to track individual foci in successive time lapse, analysis had to be done manually in a blind manner on processed images.
In order to interpret RIF kinetics in an unbiased manner, we introduce a simple mathematical model describing RIF formation where one DSB is detected at a rate k leading to one RIF, and one RIF is resolved after repair at a rate k2, assuming both processes are irreversible. This model can be noted as follows:
where α is the number of naked DSB/Gy before formation of RIF and D is the dose delivered to the cell. Alpha (α) should be constant for all doses. Further details are provided in the supporting information materials and methods regarding the way Eq. 1 is fitted.

[1] = biological target: T1, ataxia telangiectasia mutated (ATM) kinase (Homo sapiens, UniProt Q13315); assay: Inhibition of ATM measured by Western blot of P53-S15p; assay type: cell-based; conditions: 10 μM inhibitor, MCF10A
T1 construct: endogenous in cells; host or cells: MCF10A (human mammary epithelial cells, ATCC)
T1 sequence (Q13315 whole entry, change not shown): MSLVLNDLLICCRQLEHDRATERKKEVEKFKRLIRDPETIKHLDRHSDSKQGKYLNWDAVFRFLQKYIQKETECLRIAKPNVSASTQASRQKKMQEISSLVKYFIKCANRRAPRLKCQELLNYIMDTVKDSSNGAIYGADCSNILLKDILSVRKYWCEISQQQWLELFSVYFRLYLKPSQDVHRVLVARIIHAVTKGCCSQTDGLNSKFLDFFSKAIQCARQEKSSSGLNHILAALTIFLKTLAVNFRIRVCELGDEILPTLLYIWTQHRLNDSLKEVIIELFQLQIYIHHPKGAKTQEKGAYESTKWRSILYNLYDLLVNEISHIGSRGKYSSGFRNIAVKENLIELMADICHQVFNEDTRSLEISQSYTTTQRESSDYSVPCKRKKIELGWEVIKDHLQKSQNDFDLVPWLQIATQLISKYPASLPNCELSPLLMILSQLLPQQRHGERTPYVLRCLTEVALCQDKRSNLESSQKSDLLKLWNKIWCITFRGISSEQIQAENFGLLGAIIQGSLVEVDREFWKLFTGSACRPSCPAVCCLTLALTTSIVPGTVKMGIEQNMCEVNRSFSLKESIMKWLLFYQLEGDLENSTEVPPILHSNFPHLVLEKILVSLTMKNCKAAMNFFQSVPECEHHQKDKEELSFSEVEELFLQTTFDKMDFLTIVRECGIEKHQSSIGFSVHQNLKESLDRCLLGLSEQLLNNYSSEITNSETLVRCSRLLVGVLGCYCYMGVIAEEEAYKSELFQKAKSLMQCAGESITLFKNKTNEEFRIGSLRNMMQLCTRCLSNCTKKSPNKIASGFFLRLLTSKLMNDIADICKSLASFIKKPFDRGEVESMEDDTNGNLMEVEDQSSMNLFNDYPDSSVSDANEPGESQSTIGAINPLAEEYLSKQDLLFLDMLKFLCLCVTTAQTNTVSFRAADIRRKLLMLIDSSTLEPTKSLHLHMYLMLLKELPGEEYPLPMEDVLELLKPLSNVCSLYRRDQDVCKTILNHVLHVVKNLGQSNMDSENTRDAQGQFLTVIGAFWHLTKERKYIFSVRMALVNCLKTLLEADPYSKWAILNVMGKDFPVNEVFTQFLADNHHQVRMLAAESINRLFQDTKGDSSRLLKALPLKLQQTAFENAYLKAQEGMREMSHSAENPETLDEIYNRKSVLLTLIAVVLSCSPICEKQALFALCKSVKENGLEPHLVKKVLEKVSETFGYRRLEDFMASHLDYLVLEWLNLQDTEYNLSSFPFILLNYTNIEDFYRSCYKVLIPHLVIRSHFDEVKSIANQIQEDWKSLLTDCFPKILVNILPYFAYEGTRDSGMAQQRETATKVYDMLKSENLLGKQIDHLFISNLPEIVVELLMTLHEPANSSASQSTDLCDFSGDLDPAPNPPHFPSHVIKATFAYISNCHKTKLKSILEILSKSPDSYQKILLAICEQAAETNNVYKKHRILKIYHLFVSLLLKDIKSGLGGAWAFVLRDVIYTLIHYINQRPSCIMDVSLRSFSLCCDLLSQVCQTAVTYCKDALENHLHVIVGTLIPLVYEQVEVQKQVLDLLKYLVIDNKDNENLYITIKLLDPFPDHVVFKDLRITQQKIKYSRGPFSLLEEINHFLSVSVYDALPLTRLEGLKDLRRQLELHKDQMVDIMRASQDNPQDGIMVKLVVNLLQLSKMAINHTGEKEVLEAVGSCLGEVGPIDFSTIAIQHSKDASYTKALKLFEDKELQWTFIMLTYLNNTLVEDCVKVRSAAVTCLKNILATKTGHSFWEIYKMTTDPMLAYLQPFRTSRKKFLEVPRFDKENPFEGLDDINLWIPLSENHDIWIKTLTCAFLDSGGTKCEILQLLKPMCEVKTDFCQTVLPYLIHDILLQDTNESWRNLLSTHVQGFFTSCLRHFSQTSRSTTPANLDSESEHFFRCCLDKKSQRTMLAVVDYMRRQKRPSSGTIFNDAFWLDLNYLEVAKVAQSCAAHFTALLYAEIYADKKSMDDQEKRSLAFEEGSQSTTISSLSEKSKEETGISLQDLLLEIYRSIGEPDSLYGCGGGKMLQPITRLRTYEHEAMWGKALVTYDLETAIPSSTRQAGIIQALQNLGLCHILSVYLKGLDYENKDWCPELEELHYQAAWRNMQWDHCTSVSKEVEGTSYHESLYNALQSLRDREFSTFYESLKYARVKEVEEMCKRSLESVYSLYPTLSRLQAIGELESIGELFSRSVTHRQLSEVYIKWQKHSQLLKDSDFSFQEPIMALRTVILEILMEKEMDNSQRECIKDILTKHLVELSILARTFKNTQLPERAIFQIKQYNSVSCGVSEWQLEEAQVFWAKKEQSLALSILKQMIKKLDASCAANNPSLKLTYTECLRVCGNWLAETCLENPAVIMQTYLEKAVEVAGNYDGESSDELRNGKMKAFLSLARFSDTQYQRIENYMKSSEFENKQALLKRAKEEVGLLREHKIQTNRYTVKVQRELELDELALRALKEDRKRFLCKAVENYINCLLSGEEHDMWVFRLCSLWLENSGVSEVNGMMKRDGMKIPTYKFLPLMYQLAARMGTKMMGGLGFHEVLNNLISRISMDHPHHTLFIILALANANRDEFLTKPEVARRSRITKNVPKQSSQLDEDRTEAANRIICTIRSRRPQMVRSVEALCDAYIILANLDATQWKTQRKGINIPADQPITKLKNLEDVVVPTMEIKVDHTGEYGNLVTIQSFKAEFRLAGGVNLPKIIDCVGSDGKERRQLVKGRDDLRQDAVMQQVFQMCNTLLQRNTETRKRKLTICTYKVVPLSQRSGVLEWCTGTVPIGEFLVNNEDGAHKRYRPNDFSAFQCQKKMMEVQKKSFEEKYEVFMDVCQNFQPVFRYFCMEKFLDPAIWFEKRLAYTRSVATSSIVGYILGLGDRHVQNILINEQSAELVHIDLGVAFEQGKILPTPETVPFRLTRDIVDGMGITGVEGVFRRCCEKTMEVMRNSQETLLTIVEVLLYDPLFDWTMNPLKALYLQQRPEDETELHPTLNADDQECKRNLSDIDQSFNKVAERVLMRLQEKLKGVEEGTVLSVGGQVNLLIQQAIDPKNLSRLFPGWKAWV

O=c1cc(-c2cccc3c2Sc2ccccc2S3)oc(N2CCOCC2)c1 [KU55933]
T1/2_1 (RIF induction half-life) (MCF10A; 0.1 Gy X-rays): 8.3 min
α, RIF/Gy (absolute RIF yield) (MCF10A; 0.1 Gy X-rays): 25±17 RIF/Gy
α, RIF/Gy (absolute RIF yield) (MCF10A; 0.1 Gy X-rays, listed as ATM inhibition): 25 RIF/Gy
T1/2_1 (RIF induction half-life) (MCF10A; 0.4 Gy X-rays): 5.9 min
α, RIF/Gy (absolute RIF yield) (MCF10A; 0.4 Gy X-rays): 25 RIF/Gy
T1/2_1 (RIF induction half-life) (MCF10A; 1 Gy X-rays): 4.2 min
α, RIF/Gy (absolute RIF yield) (MCF10A; 1 Gy X-rays): 19 RIF/Gy
T1/2_1 (RIF induction half-life) (MCF10A; 2 Gy X-rays): 2.6 min
α, RIF/Gy (absolute RIF yield) (MCF10A; 2 Gy X-rays): 12±2 RIF/Gy
α, RIF/Gy (absolute RIF yield) (MCF10A; 2 Gy X-rays, listed as ATM inhibition): 12 RIF/Gy
detection half-lives with versus without ATM inhibition (MCF10A; across all doses): comparable
reduction of α versus normal conditions (MCF10A; after 0.1 Gy of X-rays): 3 fold
reduction of α versus normal conditions (MCF10A; after 2 Gy of X-rays): no significant reduction
RIF resolution with versus without ATM inhibition (MCF10A; at high doses): significantly slower
drop of RIF yield between 0.1 and 2 Gy (MCF10A; under ATM inhibition): 2 fold
overall number of RIF (MCF10A; under ATM inhibition versus normal media): largely diminished
phosphorylated p53 at S15 [1]: reduction
